The values that follow are results of earlier work, collected in patent US20150328277A1 (Teva Pharmaceutical Industries, Ltd., priority 2012, published 2015).

Read-outs that look alike come from different tables or passages of the source.

One data set deals with multiple sclerosis. Conditions: 20 mg/day subcutaneous (s.c.); MS patients.
Data set [1] has as its system experimental autoimmune encephalomyelitis (EAE). The following applies: orally administered; mice.
The test system is the same in data set [2]. Conditions: orally administered; rats.
In data set [3] the test system is relapsing multiple sclerosis. Conditions: administered orally; clinical trial.

Consider “L-glutamic acid polymer with L-alanine, L-lysine, L-tyrosine, acetate (salt) [glatiramer acetate]”, for which the “total number of enhancing lesions as measured by MRI” value in the data set with multiple sclerosis is on record as “reduce the total number of enhancing lesions”. Besides, the “induction of EAE” value in data set [1] and in data set [2] was “inhibited the induction of experimental autoimmune encephalomyelitis (EAE)” in each case. Further, the “relapse rate or other clinical MRI parameters of disease activity” value in data set [3] was “did not affect relapse rate or other clinical MRI parameters of disease activity”.
